Test results: ChEMBL document CHEMBL2202954, “The effect of PLC-γ2 inhibitors on the growth of human tumour cells” (2012)

What was measured:
Type in all cases: functional
[1] = tested on: MDA-MB-468; assay: Cytotoxicity against human MDA-MB-468 cells assessed as cellular growth at 10 uM by SRB assay
[2] = tested on: T47D; assay: Cytotoxicity against human T47D cells assessed as cellular growth at 10 uM by SRB assay
[3] = tested on: BT-549; assay: Cytotoxicity against human BT549 cells assessed as cellular growth at 10 uM by SRB assay
[4] = tested on: Hs-578T; assay: Cytotoxicity against human Hs578T cells assessed as cellular growth at 10 uM by SRB assay
[5] = tested on: MDA-MB-231; assay: Cytotoxicity against human MDA-MB-231 cells assessed as cellular growth at 10 uM by SRB assay
[6] = tested on: MCF7; assay: Cytotoxicity against human MCF7 cells assessed as cellular growth at 10 uM by SRB assay
[7] = tested on: DU-145; assay: Cytotoxicity against human DU145 cells assessed as cellular growth at 10 uM by SRB assay
[8] = tested on: UO-31; assay: Cytotoxicity against human UO31 cells assessed as cellular growth at 10 uM by SRB assay
[9] = tested on: PC-3; assay: Cytotoxicity against human PC3 cells assessed as cellular growth at 10 uM by SRB assay
[10] = tested on: TK-10; assay: Cytotoxicity against human TK10 cells assessed as cellular growth at 10 uM by SRB assay
[11] = tested on: SN12C; assay: Cytotoxicity against human SN12C cells assessed as cellular growth at 10 uM by SRB assay
[12] = tested on: RXF 393; assay: Cytotoxicity against human RXF393 cells assessed as cellular growth at 10 uM by SRB assay
[13] = tested on: ACHN; assay: Cytotoxicity against human ACHN cells assessed as cellular growth at 10 uM by SRB assay
[14] = tested on: CAKI-1; assay: Cytotoxicity against human Caki1 cells assessed as cellular growth at 10 uM by SRB assay
[15] = tested on: A498; assay: Cytotoxicity against human A498 cells assessed as cellular growth at 10 uM by SRB assay
[16] = tested on: 786-0; assay: Cytotoxicity against human 786-0 cells assessed as cellular growth at 10 uM by SRB assay
[17] = tested on: SK-OV-3; assay: Cytotoxicity against human SKOV3 cells assessed as cellular growth at 10 uM by SRB assay
[18] = Cytotoxicity against human NCI-ADR-RES cells assessed as cellular growth at 10 uM by SRB assay
[19] = tested on: OVCAR-8; assay: Cytotoxicity against human OVCAR8 cells assessed as cellular growth at 10 uM by SRB assay
[20] = tested on: OVCAR-5; assay: Cytotoxicity against human OVCAR5 cells assessed as cellular growth at 10 uM by SRB assay
[21] = tested on: OVCAR-3; assay: Cytotoxicity against human OVCAR3 cells assessed as cellular growth at 10 uM by SRB assay
[22] = tested on: IGROV-1; assay: Cytotoxicity against human IGROV1 cells assessed as cellular growth at 10 uM by SRB assay
[23] = tested on: UACC-62; assay: Cytotoxicity against human UACC62 cells assessed as cellular growth at 10 uM by SRB assay
[24] = tested on: UACC-257; assay: Cytotoxicity against human UACC257 cells assessed as cellular growth at 10 uM by SRB assay
[25] = tested on: SK-MEL-5; assay: Cytotoxicity against human SK-MEL-5 cells assessed as cellular growth at 10 uM by SRB assay
[26] = tested on: SK-MEL-28; assay: Cytotoxicity against human SK-MEL-28 cells assessed as cellular growth at 10 uM by SRB assay
[27] = tested on: SK-MEL-2; assay: Cytotoxicity against human SK-MEL-2 cells assessed as cellular growth at 10 uM by SRB assay
[28] = tested on: MDA-MB-435; assay: Cytotoxicity against human MDA-MB-435 cells assessed as cellular growth at 10 uM by SRB assay
[29] = tested on: M14; assay: Cytotoxicity against human M14 cells assessed as cellular growth at 10 uM by SRB assay
[30] = tested on: Malme-3M; assay: Cytotoxicity against human MALME-3M cells assessed as cellular growth at 10 uM by SRB assay
[31] = tested on: LOX IMVI; assay: Cytotoxicity against human LOXIMVI cells assessed as cellular growth at 10 uM by SRB assay
[32] = tested on: U-251; assay: Cytotoxicity against human U251 cells assessed as cellular growth at 10 uM by SRB assay
[33] = tested on: SNB-75; assay: Cytotoxicity against human SNB75 cells assessed as cellular growth at 10 uM by SRB assay
[34] = tested on: SNB-19; assay: Cytotoxicity against human SNB19 cells assessed as cellular growth at 10 uM by SRB assay
[35] = tested on: SF-539; assay: Cytotoxicity against human SF539 cells assessed as cellular growth at 10 uM by SRB assay
[36] = tested on: SF-268; assay: Cytotoxicity against human SF268 cells assessed as cellular growth at 10 uM by SRB assay
[37] = tested on: SW-620; assay: Cytotoxicity against human SW620 cells assessed as cellular growth at 10 uM by SRB assay
[38] = tested on: KM12; assay: Cytotoxicity against human KM12 cells assessed as cellular growth at 10 uM by SRB assay
[39] = tested on: HT-29; assay: Cytotoxicity against human HT-29 cells assessed as cellular growth at 10 uM by SRB assay
[40] = tested on: HCT-15; assay: Cytotoxicity against human HCT15 cells assessed as cellular growth at 10 uM by SRB assay
[41] = tested on: HCT-116; assay: Cytotoxicity against human HCT116 cells assessed as cellular growth at 10 uM by SRB assay
[42] = tested on: HCC 2998; assay: Cytotoxicity against human HCC2998 cells assessed as cellular growth at 10 uM by SRB assay
[43] = tested on: NCI-H522; assay: Cytotoxicity against human NCI-H522 cells assessed as cellular growth at 10 uM by SRB assay
[44] = tested on: COLO 205; assay: Cytotoxicity against human COLO205 cells assessed as cellular growth at 10 uM by SRB assay
[45] = tested on: NCI-H460; assay: Cytotoxicity against human NCI-H460 cells assessed as cellular growth at 10 uM by SRB assay
[46] = tested on: NCI-H322M; assay: Cytotoxicity against human NCI-H322M cells assessed as cellular growth at 10 uM by SRB assay
[47] = tested on: NCI-H226; assay: Cytotoxicity against human NCI-H226 cells assessed as cellular growth at 10 uM by SRB assay
[48] = tested on: NCI-H23; assay: Cytotoxicity against human NCI-H23 cells assessed as cellular growth at 10 uM by SRB assay
[49] = tested on: HOP-92; assay: Cytotoxicity against human HOP92 cells assessed as cellular growth at 10 uM by SRB assay
[50] = tested on: EKVX; assay: Cytotoxicity against human EKVX cells assessed as cellular growth at 10 uM by SRB assay
[51] = tested on: HOP-62; assay: Cytotoxicity against human HOP62 cells assessed as cellular growth at 10 uM by SRB assay
[52] = tested on: A549; assay: Cytotoxicity against human A549 cells assessed as cellular growth at 10 uM by SRB assay
[53] = tested on: SR; assay: Cytotoxicity against human SR cells assessed as cellular growth at 10 uM by SRB assay
[54] = tested on: MOLT-4; assay: Cytotoxicity against human MOLT4 cells assessed as cellular growth at 10 uM by SRB assay
[55] = tested on: RPMI-8226; assay: Cytotoxicity against human RPMI8226 cells assessed as cellular growth at 10 uM by SRB assay
[56] = tested on: K562; assay: Cytotoxicity against human K562 cells assessed as cellular growth at 10 uM by SRB assay
[57] = tested on: HL-60(TB); assay: Cytotoxicity against human HL-60(TB) cells assessed as cellular growth at 10 uM by SRB assay
[58] = tested on: CCRF-CEM; assay: Cytotoxicity against human CCRF-CEM cells assessed as cellular growth at 10 uM by SRB assay
[59] = tested on: OVCAR-4; assay: Cytotoxicity against human OVCAR4 cells assessed as cellular growth at 10 uM by SRB assay
[60] = tested on: SF-295; assay: Cytotoxicity against human SF295 cells assessed as cellular growth at 10 uM by SRB assay

O=C(Nc1ccc2oc(=O)ccc2c1)c1ccc(-c2ccc(Br)cc2)o1
Activity [1]: 122.28% | Activity [2]: 100.95% | Activity [3]: 118.79% | Activity [4]: 104.83% | Activity [5]: 104.85% | Activity [6]: 98.67% | Activity [7]: 109.38% | Activity [8]: 127.52% | Activity [9]: 111.02% | Activity [10]: 102.05% | Activity [11]: 99.06% | Activity [12]: 112.24% | Activity [13]: 121.66% | Activity [14]: 183.36% | Activity [15]: 101.8% | Activity [16]: 95.42% | Activity [17]: 112.03% | Activity [18]: 101.15% | Activity [19]: 101.05% | Activity [20]: 121.34% | Activity [21]: 125.42% | Activity [22]: 126.49% | Activity [23]: 104.75% | Activity [24]: 114.76% | Activity [25]: 100.82% | Activity [26]: 119.2% | Activity [27]: 121.49% | Activity [28]: 112.48% | Activity [29]: 114.52% | Activity [30]: 130.92% | Activity [31]: 105.3% | Activity [32]: 98.16% | Activity [33]: 104.41% | Activity [34]: 105.93% | Activity [35]: 101.06% | Activity [36]: 106.9% | Activity [37]: 107.9% | Activity [38]: 114.03% | Activity [39]: 108.43% | Activity [40]: 108.33% | Activity [41]: 103.94% | Activity [42]: 112.96% | Activity [43]: 105.32% | Activity [44]: 124.46% | Activity [45]: 100.9% | Activity [46]: 154.44% | Activity [47]: 112.35% | Activity [48]: 103.68% | Activity [49]: 97.44% | Activity [50]: 113.5% | Activity [51]: 106.69% | Activity [52]: 100.63% | Activity [53]: 102.2% | Activity [54]: 96.93% | Activity [55]: 108.92% | Activity [56]: 95.77% | Activity [57]: 101.52% | Activity [58]: 103.74%

O=C(NCc1cccnc1)c1sc2cc([N+](=O)[O-])ccc2c1Cl
Activity [1]: 106.53% | Activity [2]: 84.08% | Activity [3]: 97.89% | Activity [4]: 92.59% | Activity [5]: 117.28% | Activity [6]: 92.75% | Activity [7]: 105.44% | Activity [8]: 76.73% | Activity [9]: 101.92% | Activity [10]: 122.07% | Activity [11]: 92.4% | Activity [12]: 111.54% | Activity [13]: 106.03% | Activity [14]: 85.26% | Activity [15]: 66.73% | Activity [16]: 96.95% | Activity [17]: 91.06% | Activity [18]: 95.58% | Activity [19]: 96.34% | Activity [59]: 102.6% | Activity [20]: 105.26% | Activity [21]: 100.57% | Activity [22]: 106.67% | Activity [23]: 89.48% | Activity [24]: 92.34% | Activity [25]: 96.88% | Activity [26]: 110.01% | Activity [28]: 95.22% | Activity [29]: 108.24% | Activity [30]: 105.28% | Activity [31]: 102.15% | Activity [32]: 90.3% | Activity [33]: 91.37% | Activity [34]: 96.96% | Activity [35]: 103.86% | Activity [60]: 92.94% | Activity [36]: 99.64% | Activity [37]: 96.99% | Activity [38]: 96.39% | Activity [39]: 106.56% | Activity [40]: 97.65% | Activity [41]: 99.66% | Activity [42]: 104.9% | Activity [43]: 97.09% | Activity [44]: 118.05% | Activity [45]: 106.27% | Activity [46]: 101.48% | Activity [47]: 97.25% | Activity [48]: 97.31% | Activity [49]: 98.76% | Activity [50]: 90.5% | Activity [51]: 97.3% | Activity [52]: 91.87% | Activity [54]: 93.36% | Activity [55]: 94.49% | Activity [56]: 93.09% | Activity [57]: 110.91% | Activity [58]: 100.08%
